Results reported in US6310093A (priority 1998, dated 2001).
Where a chain is given by its changes, count along the chain named. Several values for one entry are separate records, joined by “and”; a condition that tells them apart may be missing. Equal entries are not always repeated. Entries after “also recorded” stand apart in the source; their conditions may differ. Where two headings read alike, the source gives them in different places.

Legend:
[1] = molecular target: T1, glutaminase (brain membranes) (Rattus norvegicus, UniProt P13264); experiment: biochemical; set-up: Glutaminase Activity: unit not given here; conditions: for Glutaminase Activity: brain membranes
T1 construct: Membranes are prepared by homogenization of brain tissue in 330 mM sucrose; from tissue; host or cells: rat brain, crude membranes (17000 G pellet)
T1 sequence (P13264 73-674 limits assumed): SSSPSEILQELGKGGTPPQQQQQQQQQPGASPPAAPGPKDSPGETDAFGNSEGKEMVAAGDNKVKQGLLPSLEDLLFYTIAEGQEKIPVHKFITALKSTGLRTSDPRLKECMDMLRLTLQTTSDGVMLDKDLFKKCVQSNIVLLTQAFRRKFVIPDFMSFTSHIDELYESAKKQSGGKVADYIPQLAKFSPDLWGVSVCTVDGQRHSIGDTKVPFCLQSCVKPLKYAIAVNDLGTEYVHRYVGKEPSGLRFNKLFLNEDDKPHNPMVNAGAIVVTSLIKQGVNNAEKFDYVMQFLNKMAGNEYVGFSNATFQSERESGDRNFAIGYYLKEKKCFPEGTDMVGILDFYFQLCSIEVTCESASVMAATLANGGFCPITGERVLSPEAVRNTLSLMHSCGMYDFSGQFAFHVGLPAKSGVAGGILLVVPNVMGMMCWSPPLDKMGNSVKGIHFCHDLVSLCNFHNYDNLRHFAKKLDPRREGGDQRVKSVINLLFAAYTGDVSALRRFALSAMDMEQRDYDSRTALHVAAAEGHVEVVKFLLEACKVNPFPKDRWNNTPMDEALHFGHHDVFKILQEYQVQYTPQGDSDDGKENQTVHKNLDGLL

[2] = test system: pure neuronal cultures (cortical neurons) exposed to glutamine
[3] = test system: mixed neuronal-astrocyte cultures
[4] = test system: mixed neuronal-astrocyte cultures; experiment: cells; conditions: Mus musculus, 24 h, read-out: % cell death (LDH)
[5] = test system: neuronal cells in culture; experiment: cells; conditions: Mus musculus, read-out: LDH release by NMDA exposure relative to freeze-thaw
[6] = test system: glutaminase; conditions: cited from earlier work
[7] = molecular target: T2, glutaminase in damaged neurons (Mus musculus, UniProt D3Z7P3)
T2 sequence (D3Z7P3 73-674 limits assumed): T1 sequence (P13264 73-674 limits assumed) with V64I, E590G

[8] = Huber; cited from earlier work
[9] = molecular target: T3, glutaminase in live (intact) neurons (Mus musculus, UniProt D3Z7P3); type: cell-based, mouse (Swiss Webster)
T3 sequence (D3Z7P3 55-674): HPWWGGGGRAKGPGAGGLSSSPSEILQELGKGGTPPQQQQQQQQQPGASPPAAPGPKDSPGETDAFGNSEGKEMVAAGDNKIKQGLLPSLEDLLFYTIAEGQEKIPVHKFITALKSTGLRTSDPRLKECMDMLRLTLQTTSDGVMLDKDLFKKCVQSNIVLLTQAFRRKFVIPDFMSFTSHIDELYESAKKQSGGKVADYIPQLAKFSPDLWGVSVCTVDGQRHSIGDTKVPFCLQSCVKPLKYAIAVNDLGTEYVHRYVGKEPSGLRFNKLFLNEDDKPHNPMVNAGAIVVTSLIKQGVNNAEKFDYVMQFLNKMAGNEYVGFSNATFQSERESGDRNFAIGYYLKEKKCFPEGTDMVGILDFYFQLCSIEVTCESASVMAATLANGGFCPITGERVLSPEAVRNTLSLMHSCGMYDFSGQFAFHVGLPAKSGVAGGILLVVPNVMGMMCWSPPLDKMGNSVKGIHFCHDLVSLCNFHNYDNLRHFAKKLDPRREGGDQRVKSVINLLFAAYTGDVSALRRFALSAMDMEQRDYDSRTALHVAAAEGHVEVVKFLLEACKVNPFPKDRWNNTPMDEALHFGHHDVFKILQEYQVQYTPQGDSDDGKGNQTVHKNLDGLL

[10] = test system: neuronal cells in culture
[11] = test system: hippocampal slices (field potential)
[12] = Kaneko et al. 1992; cited from earlier work
[13] = test system: glial cultures (astrocytes); type: cell-based, mouse (Swiss Webster); conditions: at much higher concentrations than inhibition of exposed glutaminase
[14] = test system: ischemic penumbra (dialysate glutamate); experiment: In vivo microdialysis of ischemic penumbra after MCAO; set-up: species or system rat; conditions: subsequent perfusion of phosphate; ±400%
Protocol: In further microdialysis experiments, exogenous glutamine was added to the ischemic penumbra via the probe, and dialysis glutamate was measured, as described in Example 7. When 10 mM glutamine plus 20 mM sodium phosphate were perfused into the penumbra for one hour, dialysate glutamate was elevated 315% as compared to control (±115%). […] The effects on glutamate were much more pronounced than on other amino acids measured; therefore, these studies provided further support for the involvement of extracellular glutaminase activity in producing the elevated levels of glutamate in cortical tissue undergoing ischemic damage.
The middle cerebral arteries of rats were occluded as in EXAMPLE 7, and the rats were returned to their cages overnight. The next morning, dialysis probes ([…], 2 mm length, 20,000 dalton cutoff) were inserted into ischemic penumbra (cortex) and perfused with artificial CSF at 3 μl/min for 1 h prior to collection of 10 minute fractions of dialysate. The effectiveness of the occlusion and the placement of probes were verified by TTC staining of 1 mm sections at the conclusion of the experiment. Amino acids in the dialysate were measured by reverse phase HPLC with fluorescence detection, after derivatization of the dialysates with o-phthaldialdehyde and N-acetyl-L-cysteine […]

[15] = 7 h hypoxia, 2 mM Gln + 30 uM pCMPS

CCCCCCCC([N+](=O)[O-])[N+](=O)[O-] [1,1-dinitrooctane]
dependence of glutaminase inhibition on phosphate level and concentration (in words) [1]: inhibition was reduced in the presence of high phosphate levels; the effect was particularly evident; also recorded: A biphasic effect | Glutaminase Activity ([1]; 30 µM): 96 ± 3 | Glutaminase Activity ([1]; 100 µM): 96 ± 4 | Glutaminase Activity ([1]; 300 µM): 51 ± 4 and 88 ± 17 | Glutaminase Activity ([1]; 3000 µM): 64 ± 43 | activity at 30 µM ([1]; read-out: Glutaminase Activity): 89 ± 6% | activity at 100 µM ([1]; read-out: Glutaminase Activity): 77 ± 11% | activity at 3000 µM ([1]; read-out: Glutaminase Activity): 79 ± 27% | neuroprotection (in words) [2]: neuroprotective in cultures of pure (intact) neurons | lowering of LDH level ([2]; pure neuronal cultures): 30-40% | lowering of glutamate level ([2]; pure neuronal cultures): 30-40%

CN[C@H](CC(=O)O)C(=O)O [NMDA, N-methyl-D-aspartate]
Glu [3]: 7.0 ± 0.6 | cytotoxicity at 500 µM [4]: 100% | cytotoxicity at 500 µM [5]: ~85%

[N-]=[N+]=CC(=O)OC[C@H](N)C(=O)O [azaserine]
glutaminase inhibition (literature, in words) [6]: do not inhibit glutaminase

N[C@H](C(=O)O)[C@@H]1CC(Cl)=NO1 [acivicin]
effect on glutamine hydrolysis by damaged neurons (in words) [7]: no effect on glutamine hydrolysis | glutaminase inhibition (literature, in words) [6]: do not inhibit glutaminase | crossing of cell membranes (in words) [8]: readily cross cell membranes

[N-]=[N+]=CC(=O)CC[C@H](N)C(=O)O [DON, 6-diazo-5-oxo-L-norleucine]
effect on glutaminase activity of intact/live neurons (in words) [9]: inhibition of glutaminase | glutamate production after neuronal death [9]: 0.23 ± 0.03 μM Glu/min and 0.15 ± 0.02 μM Glu/min | inhibition of glutamate production [7]: 90% and 50% | inhibition of glutaminase activity in damaged cells (in words) [7]: inhibit glutaminase activity in damaged cells | LDH release from neuronal cells (in words) [10]: resulted in release of lactate dehydrogenase from the cells, indicating cellular toxicity and death | effect on hippocampal field potential (in words) [11]: decreased the magnitude and prolonged the duration of the field potential | crossing of cell membranes (in words) [8]: readily cross cell membranes | toxicity and tissue penetration after CNS administration (in words) [12]: toxicity and poor tissue penetration

O=S(=O)(O)c1cc[c]([Hg][Cl])cc1 [pCMPS, p-(chloromercuri)phenyl sulfonic acid]
effect on glutaminase activity of intact/live neurons (in words) [9]: lack of effect | glial uptake of glutamate (in words) [13]: blocks glial uptake of glutamate | LDH release caused by glutamine exposure (in words) [2]: prevented the release of LDH | medium glutamate [2]: 10.3 ± 4 μM Glu | neuronal morphology (in words) [2]: neurons retained their normal appearance after 24 h | neuroprotection (in words) [2]: protected pure neuronal cultures from neuronal damage caused by exposure to glutamine | neuronal LDH release ([2]; mouse, pure neuronal cultures, 24 h, 30 µM): 17 ± 10.5 | effect on medium glutamate and release of LDH in hypoxic mixed cultures (in words) ([3]; 30 μM pCMPS, 2 mM glutamine, hypoxia 7h): lowered medium glutamate and release of LDH | medium glutamate [3, 15]: 1.45 ± 1.0 μM Glu | neuronal LDH release [3, 15]: 38.5 ± 8.1% | concentration required to inhibit glutaminase [7]: 10 to 30 µM | inhibition of glutamine hydrolysis by NMDA-damaged neurons (in words) ([7]; 30 μM): almost completely inhibited | glutamate generation by NMDA-damaged neurons (in words) ([7]; 600 μM): completely abolished glutamate generation | LDH release from control cultures (in words) ([10]; 30 μM): did not cause LDH release from control cultures | effect on hippocampal field potential (in words) ([11]; 120 μM, 60 min perfusion): no effect on the field potential

N[C@@H](CC(=O)CCl)C(=O)O [Chloroketone, L-2-amino-4-oxo-5-chloropentanoic acid]
LDH release from neuronal cells (in words) [10]: resulted in release of lactate dehydrogenase from the cells, indicating cellular toxicity and death | glutaminase inhibition (literature, in words) [6]: only weak (mM) inhibitors

O=P(O)(O)O [phosphate, sodium phosphate]
dialysate glutamate, % of control [14]: 845 % of control | increase of glutamate generation ([7]; mixed neuronal-glial cultures, 20000 µM): 8 fold

NNC(=O)CCC(N)C(=O)O (stereo not drawn) [glutamate-γ-hydrazide]
effect on glutamine hydrolysis by damaged neurons (in words) [7]: no effect on glutamine hydrolysis

COC(=O)CC[C@H](N)C(=O)O [L-glutamate-5-methyl ester]
activity at 3300 µM ([1]; read-out: Glutaminase Activity): 105 ± 7% | activity at 9000 µM ([1]; read-out: Glutaminase Activity): 113%
